From patent US20260248126A1, “BIOCIDE” (PURGOS APS, priority 2020, published 2026)
“And” between values parts separate entries of the source, which are not always exact repeats. Equal entries are not always repeated. “Also recorded” adds a separate entry of the source.

Key:
Bacillus cereus ISI 842 [1] = assay: Minimal inhibitory concentration (MIC), microtiter plate; format: cell-based
Method: (§1) For the tested substance. the stock solution was 10%. Minimum inhibitory concentrations (MICs) are defined as the lowest concentration of an antimicrobial that will inhibit the visible growth of a microorganism after a standardized incubation. In the present study, MIC assay was performed by pipetting robot. The principle is that an indicator microorganism at a defined cell density is cultured with a range of concentrations of the test compound, one concentration pr. well in a row on the microtiter plate. For bacteria and yeasts the minimal inhibitory concentration was detected as no increase of optical density (OD), for moulds microtiter plates were read visually. Each indicator organism is tested in duplicate and the MIC is calculated as the average of the two determinations. The tested concentrations of the antimicrobial substances were 2-fold dilutions from 5%. All indicator organisms (see Table 2.) were pre-cultivated in a suitable growth medium and diluted in the same medium to give a final concentration in the assay of ~1×10^3 cfu/ml. The microtiter plates were incubated under specific incubation conditions (see Table 3). [table]

[2] = tested on: Debaryomyces hansenii ISI 12; assay: as above; format: cell-based
Method: as §1

[3] = tested on: Lactobacillus brevis ISI 2269; assay: as above; format: cell-based
Method: as §1

[4] = tested on: Leuconostoc mesenteroides ISI 504; assay: as above; format: cell-based
Method: as §1

[5] = tested on: Listeria monocytogenes ISI 22; assay: as above; format: cell-based
Method: as §1

[6] = tested on: Pseudomonas aeruginosa ISI 1462; assay: as above; format: cell-based
Method: as §1

[7] = tested on: Streptococcus termophilus ISI 1563; assay: as above; format: cell-based
Method: as §1

[8] = tested on: Canidida albicans ISI 1226; assay: as above; format: cell-based, Candida albicans
Method: as §1

Aspergillus niger ISI 3 [9] = assay: Minimal inhibitory concentration (MIC), microtiter plate read visually; format: cell-based
Method: as §1

Aspergillus niger ISI 3 [10] = assay: Minimum bactericidal concentration (MBC), outgrowth from MIC plates; format: cell-based
Text: (§2) Even when no growth is detectable in the MIC tests, it is possible that the microorganisms have survived the treatment i.e., they are not killed but just prevented from growing. In order to test for survivors, MBC plates were subsequently made from the MIC plates.

Bacillus cereus ISI 842 [11] = assay: as above; format: cell-based
Text: as §2

[12] = tested on: Debaryomyces hansenii ISI 12; assay: as above; format: cell-based
Text: as §2

[13] = tested on: Lactobacillus brevis ISI 2269; assay: as above; format: cell-based
Text: as §2

[14] = tested on: Leuconostoc mesenteroides ISI 504; assay: as above; format: cell-based
Text: as §2

[15] = tested on: Listeria monocytogenes ISI 22; assay: as above; format: cell-based
Text: as §2

[16] = tested on: Pseudomonas aeruginosa ISI 1462; assay: as above; format: cell-based
Text: as §2

[17] = tested on: Streptococcus termophilus ISI 1563; assay: as above; format: cell-based
Text: as §2

[18] = tested on: Canidida albicans ISI 1226; assay: as above; format: cell-based, Candida albicans
Text: as §2

Murine norovirus = assay: Antiviral activity, ASTM E1052 Kill Time Screen test; format: cell-based; conditions: in 60 seconds; from log reduction 0.34
bacterial count in paint = assay: In-can preservation of paint, long-time study (bacterial count over time, FIGS. 2-5); format: cell-based
Method: The results shown that 0.5% NBDA as sole active ingredient for in-can preservation are as successful over times up to at least as year as in-can preservation by 0.5% NBDA together with 0.5% hydrogen peroxide. FIGS. 2-4 show graphs visualizing data on long term effectivity as NBDA as an in-can additive for preservation of paint. […] In […] the development in bacterial count over time for the abovementioned additives are carried out at RT, 32° C. and 60° C. respectively. The starting point is a stained sample i.e., paint with an initial high bacteria count. […] The results shown are for the development in bacterial count over time for paint samples containing 0.5% NBDA alone and 0.5% NBDA+0.5% Hydrogen Peroxide.

Poria placenta. FPRL 280 = assay: EN 113 test against wood destroying basidiomycetes (impregnated Scots pine sapwood); format: cell-based; conditions: for Corrected mass loss / Mass loss: Mean
[19] = tested on: Gloeophyllum trabeum. BAM Ebw. 109; assay: as above; format: cell-based
[20] = tested on: Coriolus versicolor. CTB 863 A; assay: EN 113 test against wood destroying basidiomycetes (impregnated beech); format: cell-based
Acute oral toxicity LD50 = format: in vivo; conditions: worked out from rat LD50 4250 mg/kg
[21] = concentrations of 0.36%, 0.51%, 0.72%, 1.01% and 1.43%

## CCCCN(CCO)CCO [NBDA, N-butyldiethanolamine]
Bacillus cereus ISI 842 [1]
  MIC (%): 1.25%
[2]
  MIC (%): 1.25%
[3]
  MIC (%): 0.16%
[4]
  MIC (%): 0.31%
[5]
  MIC (%): 1.25%
[6]
  MIC (%): 0.63%
[7]
  MIC (%): 0.63%
[8]
  MIC (%): 0.63%
Aspergillus niger ISI 3 [9]
  MIC (%): 0.63%
Aspergillus niger ISI 3 [10]
  MBC(%): 0.63%
Bacillus cereus ISI 842 [11]
  MBC(%): 1.25%
[12]
  MBC(%): 2.5%
[13]
  MBC(%): 0.31%
[14]
  MBC(%): 0.63%
[14]; NBDA 0.02%
  optical density (OD), MRC Data: 1.449 and 1.467
[14]; NBDA 0.04%
  optical density (OD), MRC Data: 1.449 and 1.468
[14]; NBDA 0.08%
  optical density (OD), MRC Data: 1.413 and 1.467
[14]; NBDA 0.16%
  optical density (OD), MRC Data: 1.337 and 1.425
[14]; NBDA 0.31%
  optical density (OD), MRC Data: 1.452 and 1.448
[14]; NBDA 1.25%
  optical density (OD), MRC Data: 0.075
[14]; NBDA 2.50%
  optical density (OD), MRC Data: 0.076 and 0.077
[14]; NBDA 5.00%
  optical density (OD), MRC Data: 0.066 and 0.067
[15]
  MBC(%): 2.5%
[16]
  MBC(%): 1.25%
[17]
  MBC(%): 1.25%
[17]; NBDA 0.02%
  optical density (OD), MIC Data (second Streptococcus table): 0.346 and 0.323
[17]; NBDA 0.04%
  optical density (OD), MIC Data (second Streptococcus table): 0.307 and 0.283
[17]; NBDA 0.08%
  optical density (OD), MIC Data (second Streptococcus table): 0.311 and 0.304
[17]; NBDA 0.16%
  optical density (OD), MIC Data (second Streptococcus table): 0.251 and 0.232
[17]; NBDA 0.31%
  optical density (OD), MIC Data (second Streptococcus table): 0.802 and 0.522
[17]; NBDA 0.63%
  optical density (OD), MIC Data (second Streptococcus table): 0.277 and 0.427
[17]; NBDA 1.25%
  optical density (OD), MIC Data (second Streptococcus table): 0.072
[17]; NBDA 2.50%
  optical density (OD), MIC Data (second Streptococcus table): 0.070 and 0.068
[17]; NBDA 5.00%
  optical density (OD), MIC Data (second Streptococcus table): 0.062 and 0.058
[18]
  MBC(%): 1.25%
Murine norovirus
  Norovirus eliminated / destroyed: 54%
Bacterial count in paint; initial clean sample (low bacterial count), 0.5% NBDA, FIG. 5
  long term effectivity, bacterial count over time: as effective as 0.5% NBDA+0.5% Hydrogen peroxide for preventing bacterial growth in paint samples
Bacterial count in paint; initial high count, 0.5% and 1% NBDA, RT, 32° C., 60° C., FIGS. 2-4
  long term effectivity, bacterial count over time: consistent long-term results for in-can preservation of paint; also recorded: as effective as NBDA+Hydrogen Peroxide for both NBDA concentrations at all three test temperatures long term; also recorded: highly effective as the sole biocide additive for in-can preservation of paints
Bacterial count in paint; initial high count, 0.5% and 1% NBDA, RT, 32° C., 60° C., FIGS. 2-4, listed as N-butyldiethanolamine
  long term effectivity, bacterial count over time: no bacterial growth even for sustained periods of time; also recorded: sustained effect after more than a year
Poria placenta. FPRL 280
  Toxic value, Sol. conc.: 0.72-1.01 % w/w
Poria placenta. FPRL 280; Solution conc. 0.36 % w/w
  Corrected mass loss: 14.2%
Poria placenta. FPRL 280; Solution conc. 0.72 % w/w
  Corrected mass loss: 8.2%
  Mass loss: 7.8%
Poria placenta. FPRL 280; Solution conc. 1.01 % w/w
  Corrected mass loss: 1.4%
  Mass loss: 1.0%
Poria placenta. FPRL 280; Solution conc. 1.43 % w/w
  Corrected mass loss: 1.5%
  Mass loss: 0.4%
Poria placenta. FPRL 280; [21]
  fungicide effect, preventing wood destruction: effective as a fungicide for preventing wood destruction
[19]
  Toxic value, Sol. conc.: 1.01-1.43 % w/w
[19]; [21]
  fungicide effect, preventing wood destruction: effective as a fungicide for preventing wood destruction
[20]
  Toxic value, Sol. conc.: >2.20 % w/w
Acute oral toxicity LD50
  human consummation equivalent to LD50: 319 gram pr 75 kg
